In ChEMBL document CHEMBL4346657, “Anticancer activity, dual prooxidant/antioxidant effect and apoptosis induction profile of new bichalcophene-5-carboxamidines” (Eur J Med Chem, 2019):
Calls of active or inactive are those of the source. The calls are words filed in the database; no cut-off is given here.

How the values were obtained:
[1] = system: UO-31; assay: Antiproliferative activity against human UO31 cells assessed as growth inhibition after 48 hrs by sulforhodamine B assay; format: functional; details: UO-31, 48 h
[2] = system: TK-10; assay: Antiproliferative activity against human TK10 cells assessed as growth inhibition after 48 hrs by sulforhodamine B assay; format: functional; details: TK-10, 48 h
[3] = system: PC-3; assay: Antiproliferative activity against human PC3 cells assessed as growth inhibition after 48 hrs by sulforhodamine B assay; format: functional; details: PC-3, 48 h
[4] = system: MCF7; assay: Antiproliferative activity against human MCF7 cells assessed as growth inhibition after 48 hrs by sulforhodamine B assay; format: functional; details: MCF7, 48 h
[5] = system: Panel NCI-60 (60 carcinoma cell lines); assay: Antiproliferative activity against human NCI60 cells assessed as growth inhibition at 10 uM after 48 hrs by sulforhodamine B assay; format: functional; details: read-out: GI
[6] = system: SN12C; assay: Antiproliferative activity against human SN12C cells assessed as growth inhibition after 48 hrs by sulforhodamine B assay; format: functional
[7] = system: RXF 393; assay: Antiproliferative activity against human RXF393 cells assessed as growth inhibition after 48 hrs by sulforhodamine B assay; format: functional; details: RXF 393, 48 h
[8] = system: CAKI-1; assay: Antiproliferative activity against human CAKI-1 cells assessed as growth inhibition after 48 hrs by sulforhodamine B assay; format: functional; details: CAKI-1, 48 h
[9] = system: ACHN; assay: Antiproliferative activity against human ACHN cells assessed as growth inhibition after 48 hrs by sulforhodamine B assay; format: functional
[10] = system: 786-0; assay: Antiproliferative activity against human 786-0 cells assessed as growth inhibition after 48 hrs by sulforhodamine B assay; format: functional; details: 786-0, 48 h
[11] = system: SK-OV-3; assay: Antiproliferative activity against human SKOV3 cells assessed as growth inhibition after 48 hrs by sulforhodamine B assay; format: functional; details: SK-OV-3, 48 h
[12] = system: OVCAR-8; assay: Antiproliferative activity against human OVCAR8 cells assessed as growth inhibition after 48 hrs by sulforhodamine B assay; format: functional; details: OVCAR-8, 48 h
[13] = system: OVCAR-5; assay: Antiproliferative activity against human OVCAR5 cells assessed as growth inhibition after 48 hrs by sulforhodamine B assay; format: functional; details: OVCAR-5, 48 h
[14] = system: OVCAR-4; assay: Antiproliferative activity against human OVCAR4 cells assessed as growth inhibition after 48 hrs by sulforhodamine B assay; format: functional; details: OVCAR-4, 48 h
[15] = system: SK-MEL-5; assay: Antiproliferative activity against human SK-MEL-5 cells assessed as growth inhibition after 48 hrs by sulforhodamine B assay; format: functional; details: SK-MEL-5, 48 h
[16] = system: SK-MEL-28; assay: Antiproliferative activity against human SK-MEL-28 cells assessed as growth inhibition after 48 hrs by sulforhodamine B assay; format: functional; details: SK-MEL-28, 48 h
[17] = system: SK-MEL-2; assay: Antiproliferative activity against human SK-MEL-2 cells assessed as growth inhibition after 48 hrs by sulforhodamine B assay; format: functional; details: SK-MEL-2, 48 h
[18] = system: M14; assay: Antiproliferative activity against human M14 cells assessed as growth inhibition after 48 hrs by sulforhodamine B assay; format: functional; details: M14, 48 h
[19] = system: U-251; assay: Antiproliferative activity against human U251 cells assessed as growth inhibition after 48 hrs by sulforhodamine B assay; format: functional; details: U-251, 48 h
[20] = system: SNB-75; assay: Antiproliferative activity against human SNB75 cells assessed as growth inhibition after 48 hrs by sulforhodamine B assay; format: functional; details: SNB-75, 48 h
[21] = system: SF-539; assay: Antiproliferative activity against human SF539 cells assessed as growth inhibition after 48 hrs by sulforhodamine B assay; format: functional; details: SF-539, 48 h
[22] = system: SF-295; assay: Antiproliferative activity against human SF295 cells assessed as growth inhibition after 48 hrs by sulforhodamine B assay; format: functional; details: SF-295, 48 h
[23] = system: SF-268; assay: Antiproliferative activity against human SF268 cells assessed as growth inhibition after 48 hrs by sulforhodamine B assay; format: functional; details: SF-268, 48 h
[24] = system: HT-29; assay: Antiproliferative activity against human HT-29 cells assessed as growth inhibition after 48 hrs by sulforhodamine B assay; format: functional; details: HT-29, 48 h
[25] = system: HCT-15; assay: Antiproliferative activity against human HCT15 cells assessed as growth inhibition after 48 hrs by sulforhodamine B assay; format: functional; details: HCT-15, 48 h
[26] = system: HCT-116; assay: Antiproliferative activity against human HCT116 cells assessed as growth inhibition after 48 hrs by sulforhodamine B assay; format: functional; details: HCT-116, 48 h
[27] = system: NCI-H23; assay: Antiproliferative activity against human NCI-H23 cells assessed as growth inhibition after 48 hrs by sulforhodamine B assay; format: functional; details: NCI-H23, 48 h
[28] = system: NCI-H226; assay: Antiproliferative activity against human NCI-H226 cells assessed as growth inhibition after 48 hrs by sulforhodamine B assay; format: functional; details: NCI-H226, 48 h
[29] = system: A549; assay: Antiproliferative activity against human A549/ATCC cells assessed as growth inhibition after 48 hrs by sulforhodamine B assay; format: functional; details: A549, 48 h
[30] = system: RPMI-8226; assay: Antiproliferative activity against human RPMI8226 cells assessed as growth inhibition after 48 hrs by sulforhodamine B assay; format: functional; details: RPMI-8226, 48 h
[31] = system: MOLT-4; assay: Antiproliferative activity against human MOLT4 cells assessed as growth inhibition after 48 hrs by sulforhodamine B assay; format: functional; details: MOLT-4, 48 h
[32] = system: HL-60(TB); assay: Antiproliferative activity against human HL-60(TB) cells assessed as growth inhibition after 48 hrs by sulforhodamine B assay; format: functional; details: HL-60, 48 h
[33] = system: CCRF-CEM; assay: Antiproliferative activity against human CCRF-CEM cells assessed as growth inhibition after 48 hrs by sulforhodamine B assay; format: functional
[34] = system: Hs-578T; assay: Antiproliferative activity against human Hs578T cells assessed as growth inhibition after 48 hrs by sulforhodamine B assay; format: functional
[35] = system: MDA-MB-468; assay: Antiproliferative activity against human MDA-MB-468 cells assessed as growth inhibition after 48 hrs by sulforhodamine B assay; format: functional; details: MDA-MB-468, 48 h
[36] = Haemolytic activity in human erythrocytes assessed as induction of hemolysis at 10 mM after 30 mins relative to H202; format: cell-based, Erythrocyte; details: read-out: Activity
[37] = system: Erythrocyte; assay: Haemolytic activity in human erythrocytes assessed as induction of hemolysis at 1.25 mM after 30 mins relative to H202; format: cell-based; details: erythrocyte, 0.5 h, 1250 µM
[38] = Antioxidant activity assessed as DPPH radical scavenging activity incubated in dark for 30 mins by spectrophotometric method relative to control; format: functional; set-up: concentration or dose not given beside the values
[39] = Antioxidant activity assessed as ABTS radical scavenging activity by spectrophotometric analysis relative to control; format: functional; set-up: concentration or dose not given beside the values; details: dose or concentration not given here
[40] = Pro-oxidant activity assessed as increase in bleomycin-Fe2+ induced calf thymus DNA damage at 2 mM after 1 hr by thiobarbituric acid based absorbance analysis
[41] = system: HCT-116; assay: Induction of apoptosis in human HCT116 cells assessed as increase in caspase 9 mRNA expression at 100 nM after 6 hrs hrs by SYBR green dye-based qRT-PCR analysis relative to control; format: functional
[42] = system: HCT-116; assay: Induction of apoptosis in human HCT116 cells assessed as increase in p53 mRNA expression at 100 nM after 6 hrs hrs by SYBR green dye-based qRT-PCR analysis relative to control; format: functional

N=C(N)c1ccc(-c2ccc(-c3cncc4ccccc34)s2)s1
GI50 [1]: 1.39 µM | GI50 [2]: 1.84 µM | GI50 [3]: 1.56 µM | GI50 [4]: 0.28 µM | inhibition of growth at 10 µM [5]: -59.2% | GI50 [6]: 1.8 µM | GI50 [7]: 1.6 µM | GI50 [8]: 1.6 µM | GI50 [9]: 1.48 µM | GI50 [10]: 1.59 µM | GI50 [11]: 1.58 µM | GI50 [12]: 1.83 µM | GI50 [13]: 1.71 µM | GI50 [14]: 0.3 µM | GI50 [15]: 1.74 µM | GI50 [16]: 1.64 µM | GI50 [17]: 2 µM | GI50 [18]: 1.62 µM | GI50 [19]: 1.72 µM | GI50 [20]: 1.93 µM | GI50 [21]: 1.73 µM | GI50 [22]: 1.8 µM | GI50 [23]: 1.63 µM | GI50 [24]: 0.56 µM | GI50 [25]: 0.98 µM | GI50 [26]: 1.61 µM | GI50 [27]: 1.76 µM | GI50 [28]: 1.91 µM | GI50 [29]: 1.62 µM | GI50 [30]: 1.78 µM | GI50 [31]: 1.17 µM | GI50 [32]: 1.92 µM | GI50 [33]: 0.36 µM | GI50 [34]: 2.22 µM | GI50 [35]: 1.27 µM | hemolysis at 0.5 h, 10000 µM [36]: 12.3% | Activity [37]: Non-Toxic | inhibition [38]: 52.5% | inhibition [39]: 69.9% | Activity [40]: Active | fold change (FC) [41]: 1.27 | fold change (FC) [42]: 4.67

N=C(N)c1ccc(-c2ccc(-c3ccc(Cl)cc3)s2)s1
GI50 [1]: 1.75 µM | GI50 [2]: 1.96 µM | GI50 [3]: 1.86 µM | GI50 [4]: 1.29 µM | inhibition of growth at 10 µM [5]: -57.2% | GI50 [6]: 1.91 µM | GI50 [7]: 1.71 µM | GI50 [8]: 1.61 µM | GI50 [9]: 1.75 µM | GI50 [10]: 1.79 µM | GI50 [11]: 1.7 µM | GI50 [12]: 2.48 µM | GI50 [13]: 1.58 µM | GI50 [14]: 1.67 µM | GI50 [15]: 3.16 µM | GI50 [16]: 1.68 µM | GI50 [17]: 2.38 µM | GI50 [18]: 1.71 µM | GI50 [19]: 1.83 µM | GI50 [20]: 1.49 µM | GI50 [21]: 1.63 µM | GI50 [22]: 1.63 µM | GI50 [23]: 1.77 µM | GI50 [24]: 1.43 µM | GI50 [25]: 1.2 µM | GI50 [26]: 1.74 µM | GI50 [27]: 1.62 µM | GI50 [28]: 2.19 µM | GI50 [29]: 2.11 µM | GI50 [30]: 2.04 µM | GI50 [31]: 1.78 µM | GI50 [32]: 1.49 µM | GI50 [33]: 1.84 µM | GI50 [34]: 2.14 µM | GI50 [35]: 1.98 µM | hemolysis at 0.5 h, 10000 µM [36]: 81.7% | Activity [37]: Non-Toxic | inhibition [38]: 72.9% | inhibition [39]: 81.2% | Activity [40]: Active | fold change (FC) [41]: 2.91 | fold change (FC) [42]: 0.89

COc1cc(OC)cc(-c2ccc(-c3ccc(C(=N)N)o3)o2)c1
GI50 [1]: 2.67 µM | GI50 [2]: 13.4 µM | GI50 [3]: 4.77 µM | GI50 [4]: 1.8 µM | inhibition of growth at 10 µM [5]: 55.9% | GI50 [6]: 2.38 µM | GI50 [7]: 1.93 µM | GI50 [8]: 4.33 µM | GI50 [9]: 2.05 µM | GI50 [10]: 4.15 µM | GI50 [11]: 14.9 µM | GI50 [12]: 3.75 µM | GI50 [13]: 2.34 µM | GI50 [14]: 3.51 µM | GI50 [15]: 1.95 µM | GI50 [16]: 1.82 µM | GI50 [17]: 2.44 µM | GI50 [18]: 2.07 µM | GI50 [19]: 2.45 µM | GI50 [20]: 2.2 µM | GI50 [21]: 1.83 µM | GI50 [22]: 2.08 µM | GI50 [23]: 3.4 µM | GI50 [24]: 2.77 µM | GI50 [25]: 3.18 µM | GI50 [26]: 2.51 µM | GI50 [27]: 9.25 µM | GI50 [28]: 2.26 µM | GI50 [29]: 3.78 µM | GI50 [30]: 2.25 µM | GI50 [31]: 2.44 µM | GI50 [32]: 1.9 µM | GI50 [33]: 2.72 µM | GI50 [34]: 8.12 µM | GI50 [35]: 2.41 µM | hemolysis at 0.5 h, 10000 µM [36]: 19.3% | Activity [37]: Non-Toxic | inhibition [38]: 31% | inhibition [39]: 36% | Activity [40]: Active | fold change (FC) [41]: 1.03 | fold change (FC) [42]: 0.9
